Measured values as given in patent publication US11147847B2, “Extracts from plants of the Moringaceae family and methods of making” (Rutgers, The State University of New Jersey, priority 2013, dated 2021).

Legend:
[1] = system: IL-1β; experiment: LPS-induced IL-1β gene expression in RAW 264.7 macrophages (qPCR); assay type: cell-based; conditions: 1 and 5 μM; LPS-induced RAW 264.7
Protocol: (§1) All reagents were supplied from Sigma-Aldrich Co. (St. Louis, Mo.) unless otherwise noted. RAW 264.7 macrophages (ATCC TIB-71) were maintained in Dulbecco's modified Eagle's medium (Caisson, North Logan, Utah) supplemented with 100 U/mL penicillin, 100 μg/mL streptomycin, and 10% fetal bovine serum. Cells were incubated at 37° C. in a 5% CO2 humidified atmosphere and subcultured by cell scraping. For experiments, RAW cells were plated at a density of 4×10^5 cells/mL in 24-well plates. Cells were incubated overnight (18 h), washed with warm 37° C. PBS, and medium was replaced fresh DMEM medium. […] Lipopolysaccharide (1 μg/mL) was added after 2 h incubation with treatments to elicit inflammatory responses. Cells were treated in duplicate or triplicate. After an additional 6 h incubation period, media were collected and cells were washed with PBS prior to collection in TRIzol® Reagent (Ambion, Life Technologies). […]
(§2) Total RNA was extracted from cells according to manufacturer's specifications. […] RNA integrity was evaluated by running about 1 μg of RNA on a 1% agarose gel. […]
(§3) Quantitative PCR amplifications were performed on an ABI 7300 Real-Time PCR System (Applied Biosystems) with the following thermal cycler profile: 2 minutes, 50° C.; 10 minutes, 95° C.; 15 seconds, 95° C.; 1 minute, 60° C. for the dissociation stage; 15 seconds, 95° C.; 1 minutes, 60° C.; and 15 seconds, 95° C. […]

[2] = system: IL-6; experiment: LPS-induced IL-6 gene expression in RAW 264.7 macrophages (qPCR); assay type: cell-based; conditions: 5 μM; LPS-induced RAW 264.7
Protocol: as §1, §2, §3

[3] = system: iNOS; experiment: LPS-induced iNOS gene expression in RAW 264.7 macrophages (qPCR); assay type: cell-based; conditions: 1 and 5 μM; LPS-induced RAW 264.7
Protocol: as §1, §2, §3

[4] = system: HII4E liver cells; experiment: In vitro gluconeogenesis: glucose production in liver cells; assay type: cell-based, rat; conditions: same concentrations as SF
Protocol: (§4) H4IIE rat hepatoma cells (CRL-1548, American Type Culture Collection, Manassas, Va.) were assayed for glucose production as previously described (21). Cell viability was measured by the 3-(4,5-Dimethyl-2-thiazolyl)-2,5-diphenyltetrazolium bromide (MTT; TCI, Portland, Oreg.) assay (22). RNA extraction, cDNA synthesis and qPCR for gene expression of PEPCK and G6P were performed as described above.

[5] = system: TNF-α; experiment: LPS-induced TNF-α gene expression in RAW 264.7 macrophages (qPCR); assay type: cell-based; conditions: any of the concentrations tested; LPS-induced RAW 264.7
Protocol: as §1, §2, §3

[6] = 1:5 ratio preparations, rotoevaporation 1 hour at 50° C., compared to freeze-dried samples
Text: Drying the 1:5 ratio preparations can be achieved by rotoevaporation, followed by freeze-drying or spray drying. […] Further concentration of MICs and removal of sugars from the extract can also be performed with solid phase-extraction (SPE).

[7] = system: RAW 264.7 macrophages; experiment: MTT-based cell viability assay; conditions: concentrations tested in anti-inflammatory assays
Protocol: The effect of the treatments on cell viability was measured using MTT [3-(4,5-dimethyl-2-thiazolyl)-2,5-diphenyltetrazolium bromide] (TCI, Portland, Oreg.) (Mosmann, 1983). MTT (5 mg/mL) was dissolved in PBS (Cayman Chemical, Ann Arbor, Mich.), filtered through a 0.22 μm membrane and added to treated cells during the last 3-4 hours of treatment. Media were carefully aspirated and cells were dissolved in DMSO. The absorbance was read at 570 nm.

[8] = Accelerated stability of MICs in moringa extract at 37° C. (LCMS); assay type: physicochemical; conditions: moringa extract stored at 37° C. for 30 days, compared to day 0
[9] = In vitro gluconeogenesis: glucose production in liver cells; assay type: cell-based, rat; conditions: Rattus norvegicus; range of 5 concentrations, HII4E liver cells
Protocol: as §4

| Compound | mRNA expression of IL-1β [1] | IL-6 gene expression [2] | mRNA expression of iNOS [3] | glucose production, activity compared to SF [4] | TNF-α gene expression [5] | loss of MIC under rotoevaporation conditions [6] | cytotoxicity (MTT-based cell viability) [7] | degradation of MIC in moringa extract [8] | IC50 [9] [µM] |
| --- | --- | --- | --- | --- | --- | --- | --- | --- | --- |
| C[C@@H]1O[C@@H](Oc2ccc(CN=C=S)cc2)[C@H](O)[C@H](O)[C@H]1O [MIC-1, 4-[(α-rhamnosyloxy)benzyl]isothiocyanate] | significant reduction | decrease IL-6 gene expression significantly | significant reduction | superior activity to SF | no reduction | No significant loss | no signs of cytotoxicity | approximately 80% | – |
| CC(=O)O[C@@H]1[C@@H](O)[C@@H](O)[C@H](Oc2ccc(CN=C=S)cc2)O[C@H]1C [MIC-4, 4-[(4′-O-acetyl-α-rhamnosyloxy)benzyl]isothiocyanate] | significant reduction | – | significant reduction | superior activity to SF | no reduction | No significant loss | no signs of cytotoxicity | ~20% | – |
| CN(C)C(=N)N=C(N)N [metformin, reference compound] | – | – | – | – | – | – | – | – | 800 |
